“Also recorded” adds a separate entry of the source. Where a SMILES comes first, the peptide text is derived from it. The star is where a group is joined. X1 = NC(=O)CCOCCOCCOCCOCCOCCOCCOCCOCCOCCOCCOCCOCCOCCOCCOCCOCCOCCOCCOCCOCCOCCOCCOCCOCCOCCOCCOCCOCCN*
Assays:
ERK1/2 phosphorylation = assay: Signal transduction assay, Western blotting of phospho-ERK1/2 in AML14.3D10-CCR3 cells; assay type: cell-based, human
Experimental: Phospho-ERK was detected using a specific antibody. The membrane was stripped and reprobed for total ERK1/2 as loading control. Immunoblots were quantified by densitometry using ImageJ. PD: PD184161, MEK inhibitor.
AML14.3D10-CCR3 cells were serum starved for 16 hours. Cells were pretreated with vehicle control, R3-2-1 or PD184161 for 30 minutes at 37° C., and subsequently stimulated with 8 nM CCL5 or CCL11 for 2 minutes. Stimulation was stopped by adding ice cold PBS. Cells were centrifuged and lysed in RIPA buffer containing protease and phosphatase inhibitors. Cell lysates were resolved on a 12% SDS-PAGE gel (10 μg/lane), transferred to PVDF membrane and blocked in 5% milk. Phospho-ERK1/2 was detected using rabbit monoclonal antibody (clone D13.14.4E, Cell Signaling Technology, Danvers, Mass.) and secondary goat anti-rabbit IgG-HRP (Santa Cruz Biotechnology, Dallas, Tex.). As a loading control, the membrane was subsequently stripped and re-probed with an antibody against total ERK1/2 (clone 127F5, Cell Signaling Technology).
Concurrent to ligand binding and activation, CCR3 undergoes ligand-induced desensitization and internalization (Zimmermann, et al. (1999) J. Biol. Chem. 274:12611-12618). As part of the desensitization process, CCR3 is degraded. This is thought to occur via β-arrestin recruitment to phosphorylated CCR3 and subsequent sequestration of the receptor into endosomal compartments, eventually leading to degradation. β-arrestin signaling is central in this process and is characterized by a late activation of signaling pathways such as MAPK/ERK1/2, in contrast to acute activation by G proteins. […] Therefore, the R3-2-1 peptide is a biased antagonist in that it inhibits the […] of CCL11 ligand-induced β-arrestin signaling, whereas the small molecule inhibitors are unbiased antagonists.

[1] = test system: eosinophil recruitment into the esophageal epithelium; assay: Mouse model of EoE, oxazalone-challenged L2-IL5 transgenic mice; assay type: in vivo; conditions: i.v., 24 hours after last OXA challenge
Experimental: Skin sensitized L2-IL5 transgenic mice received topical esophageal oxazalone (OXA) challenges by gavage (i.e.) on days 5, 8 and 12 (FIG. 5A). R3-2-1 peptide nanoparticles, control peptide (R3-2-3) or CCR3 inhibitor UCB35625 (UCB) were given immediately before on days 5, 8, 10 and 12 (FIG. 5A). Esophageal eosinophilia was assessed 24 hours after the last OXA challenge and treatment (day 13). […] Error bars represent SEM.
Mice were treated i.v. with R3-2-1 peptide, scrambled R3-2-3 control peptide ([…]-PEG27-NH2; SEQ ID NO:24), or the allosteric non-selective CCR3 inhibitor, UCB35625. Eosinophil recruitment into the esophageal epithelium was assessed 24 hours after the last OXA challenge by counting eosinophils in 9 high power fields (hpf) covering the total esophagus or 3 hpf covering the distal esophagus.

CCR3 [2] = target: T1, CCR3 (Homo sapiens, UniProt P51677); assay: NMR (13C HSQC) evaluation of binding to CCR3 membrane preparations; set-up: expressed in transfected cells; host or cells: 4DE4 mouse pre-B cell lymphoma line; conditions: 10 μM R321, 1 μM CCL11, CCR3 membrane preps 0.25 mg/ml
T1 sequence (P51677 1-355): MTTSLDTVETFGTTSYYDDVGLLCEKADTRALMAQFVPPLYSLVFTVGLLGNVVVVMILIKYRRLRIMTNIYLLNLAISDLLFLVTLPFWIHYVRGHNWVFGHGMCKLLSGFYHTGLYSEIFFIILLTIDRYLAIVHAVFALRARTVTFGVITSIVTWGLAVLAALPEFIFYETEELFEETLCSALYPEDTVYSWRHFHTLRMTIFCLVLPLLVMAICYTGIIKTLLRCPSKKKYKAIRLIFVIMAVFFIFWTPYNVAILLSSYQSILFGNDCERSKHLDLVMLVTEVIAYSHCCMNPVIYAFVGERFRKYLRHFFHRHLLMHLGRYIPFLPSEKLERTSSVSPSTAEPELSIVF
Experimental: FIG. 6A to FIG. 6E show NMR evaluation of the binding of R3-2-1 and CCL11/eotaxin-1 to CCR3 membrane preparations. ^13C HSQC spectra of ^13C-reductively methylated CCR3 membrane preps (0.25 mg/ml) were recorded with 1 μM CCL11 and 10 μM R321. […] Black arrows indicate the differences in chemical shifts.
Ligand binding to GPCR induces conformational transitions in the receptor that activate G-proteins and β-arrestin recruitment. […] Because R3-2-1 is an analog of the second transmembrane helix of CCR3, it is expected that R3-2-1 competes with the native helix 2 for binding to helices 1 and 3. Binding to helix 3 may disrupt the structure and orientation of the DRY motif in intracellular loop 2, inhibiting G-proteins.

CCR3 [3] = target: T1, CCR3; assay: CCR3 surface expression and internalization by flow cytometry, AML14.3D10-CCR3 cells; assay type: cell-based; set-up: host or cells: AML14.3D10-CCR3 (eosinophilic myelocytic cell line, kept under G418)
Experimental: Error bars represent SEM. *p<0.05, compared to untreated cells; n=3.
To assess surface expression of CCR3, cells were stained using PE-conjugated anti-human CCR3 antibody (clone 5E8, BioLegend) or PE-conjugated isotype-matched control after blocking with 10% human AB serum. To determine ligand-induced CCR3 internalization, cells were incubated with various chemokines for 1 hour at 37° C., washed once in staining buffer (PBS+0.5% BSA+0.1% NaN3) before being stained as above. After antibody staining, cells were fixed in 2% paraformaldehyde and analyzed on a QUANTA SC flow cytometer (Beckman Coulter, Indianapolis, Ind.).

CCR3 internalization or surface accumulation on prolonged treatment (CCR3 [3]; 1 μM for 24, 48 or 72 hour, with or without CCL11 (12 nM)): promotes CCR3 internalization
SMILES: CC[C@H](C)[C@H](NC(=O)[C@H](Cc1c[nH]c2ccccc12)NC(=O)[C@H](Cc1ccccc1)NC(=O)[C@@H]1CCCN1C(=O)[C@H](CC(C)C)NC(=O)[C@@H](NC(=O)[C@@H](NC(=O)[C@H](CC(C)C)NC(=O)[C@H](Cc1ccccc1)NC(=O)[C@H](CC(C)C)NC(=O)[C@@H](N)CC(C)C)C(C)C)[C@@H](C)O)C(=O)N[C@@H](Cc1c[nH]cn1)C(=O)N[C@@H](Cc1ccc(O)cc1)C(=O)N[C@H](C(=O)N[C@@H](CCCNC(=N)N)C(=O)NCC(=O)N[C@@H](Cc1c[nH]cn1)C(=O)N[C@@H](CC(N)=O)C(=O)N[C@@H](Cc1c[nH]c2ccccc12)C(=O)N[C@H](C(=O)N[C@@H](Cc1ccccc1)C(=O)NCC(=O)N[C@@H](Cc1c[nH]cn1)C(=O)N[C@@H](CC(=O)O)C(=O)N[C@@H](CC(=O)O)C(=O)N[C@@H](CC(=O)O)C(=O)NCCOCCOCCOCCOCCOCCOCCOCCOCCOCCOCCOCCOCCOCCOCCOCCOCCOCCOCCOCCOCCOCCOCCOCCOCCOCCOCCOCCOCCC(N)=O)C(C)C)C(C)C [Peptide R3-2-1] (H-LLFLVTLPFWIHYVRGHNWVFGHDDD-X1; N-terminus assumed)
acute (2-5 minutes) and late (30 minutes) phase phosphorylation of ERK1/2 (ERK1/2 phosphorylation; 10 μM, CCL11-induced): inhibits only acute phosphorylation of ERK1/2
inhibition of ERK1/2 phosphorylation induced by RANTES and eotaxin (ERK1/2 phosphorylation; 2 and 10 μM, 8 nM CCL5 or CCL11 for 2 minutes): inhibits activation of the MAPK pathway; also recorded: attenuated
eosinophil recruitment into distal and total esophageal epithelium [1]: significantly blocked eosinophil recruitment; also recorded: significantly reduced eosinophil recruitment
binding to CCR3 by NMR chemical shift changes (CCR3 [2]): chemical shift changes indicative of binding
CCL11-induced receptor internalization (CCR3 [3]; 1 μM, added concurrently with 12 nM CCL11): neither R3-2-1 (1 μM) nor R3-2-3 (1 μM) interfere with CCL11-induced receptor internalization
CCL11-induced CCR3 endocytosis (CCR3 [3]; 2 or 10 μM): does not inhibit CCL11-induced CCR3 endocytosis
surface CCR3 expression in the absence of CCR3 ligand (CCR3 [3]; AML14.3D10-CCR3 cells, significant at 1 μM): significantly decreases surface CCR3 expression
